91 molecules from a melting point compilation (Tetko et al.; mined from patent text by program, amines drawn as free bases though some values may be those of a salt) can be followed below.

Structures are written as SMILES.

The molecule `CNC(=O)C(=NO)c1ccccc1C` registered a melting point of 160 to 161 °C.
For the molecule `Nc1cc(CN2CCC2)cc(C(F)(F)F)c1`, the melting point was 60 to 61 °C.
Then `CCN(CC)C(=O)CCNC1(c2ccccc2Cl)C(=O)Nc2ccc(Cl)cc21` (stereo unspecified), with 185 °C; and `COC1(OC)CN(c2c(F)cc3c(=O)c(C(=O)O)cn(C4CC4)c3c2F)CC1C` (stereo unspecified), with 214 to 216 °C.
In the case of `CC(=O)COc1cc(N2C(=O)c3ccccc3C2=O)ccc1N1C(=O)c2ccccc2C1=O` it was 300 °C; in that of `O=C(NCCCCC1CCSS1)n1cc(F)c(=O)[nH]c1=O` (stereo unspecified), 126 °C.
Molecule `Clc1nc2ccccc2nc1Nc1cccc2ccccc12` gave a melting point of 157 to 159 °C.
The molecule `O=C(Nc1nccs1)C1C(=O)Sc2cc(Cl)ccc21` (stereo unspecified) gave a melting point of 276 to 289 °C.
In the case of `O=C(c1ccc(Cl)c(Cl)c1)N1CCc2cc(S(=O)(=O)N3CCN(c4cccc(Cl)c4)CC3)ccc21` it was 174 to 175 °C.
Consider `C=COCCN1C(=O)N(CN2C(=O)N(CCOC=C)C(=O)C2(C)C)C(C)(C)C1=O`, for which the melting point was 90 to 92 °C.
For the molecule `COC(=O)c1cc(C(=O)OC)cc(S(N)(=O)=O)c1`, the melting point was in the range of 148 to 150 °C.
In the case of `CN1CC2c3ccccc3Cc3ncccc3N2C1` (stereo unspecified) it was 127 to 129 °C; in that of `Cc1ccc(NC(=O)c2cc([N+](=O)[O-])ccc2NC(=O)CF)c(C)c1`, 227 to 229 °C; in that of `CCC(=O)N1N=C(c2ccc(N)cc2)c2cc(Br)ccc2CC1C` (stereo unspecified), 99 to 102 °C.
In the case of `CC(C)c1nc(CCOC2=CCCCCCCCC2)n(C)c1Sc1cc(Cl)cc(Cl)c1` it was 94 to 96 °C; in that of `COc1cc2c(c3c1OC(C)(C)C3)C(c1cccnc1)=NC(C)(C)C2`, 113 to 114 °C; in that of `CSc1ccc(C=CC(=O)c2ccc(N(C)C)cc2)cc1`, 150 °C.
With `c1ccc(C2NCCOC2c2ccccc2)cc1` (stereo unspecified), the melting point is 70 to 72 °C.
Molecule `COc1ccc(C(=O)Nc2cc(N)ccc2Br)cc1OC` had a melting point of 154 to 155 °C.
Consider `N#CC(C#N)=C1C(=O)Nc2ccc(S(=O)(=O)N3CCCC3COc3ccccc3)cc21` (stereo unspecified), for which the melting point is 246 to 248 °C.
In the case of `COC(=O)c1cc2c(nc1C)C(CBr)CCCC2` (stereo unspecified) it was 66 to 67 °C; in that of `CN(C)S(=O)(=O)c1ccccc1-c1cnc(N)c(C(=O)Nc2cccnc2)n1`, 222 to 223 °C; in that of `CC(=O)OC1CC(=O)N1` (stereo unspecified), 152 to 154 °C.
Then `CCOc1ccc(-c2ccc3c(c2)C=C(C(=O)OC)CCN3)cc1OCC`, with 159 to 164 °C.
Then `CC1=CC(OC(=O)c2ccc([N+](=O)[O-])cc2Cl)C(O)C(C)(C)CC1=O` (stereo unspecified), with 108 to 110 °C; and `CC(C)C(C(=O)O)c1ccc(OC(F)F)cc1` (stereo unspecified), with 63 °C.
Take `CCOC(=O)C(C)Oc1ccc2c(=O)c(-c3ccccc3)coc2c1` (stereo unspecified): the melting point was in the range of 165 to 166 °C.
`N#Cc1ccc(C(F)(F)F)cc1Sc1ccccc1N` came in with a melting point of 102 to 104 °C.
Then `CC(=O)NCCc1cccc2ccc(OCCCO)cc12`, with 141 to 142 °C; and `COc1ccc(NC(=S)NCCO)c(C)c1`, with 171 to 174 °C.
Then `COc1ccc(C(=O)N2CCN(c3ccc([N+](=O)[O-])c(C=CC(=O)O)c3)CC2)cc1OC`, with 197 to 202 °C; and `Cc1ccc(S(=O)(=O)Nc2ccc3nc(N4CCN(C)CC4)c(N4CCN(C)CC4)nc3c2)cc1`, with 234 to 237 °C.
Then `Cc1cc(OCc2cnc(-c3ccc(C(F)(F)F)cc3)cc2C(F)(F)F)ccc1OC(C)(C)C(=O)O`, with 148 to 149 °C.
The molecule `CCCc1nc2c(N)nc3cc(OCc4cccc(Cl)c4)ccc3c2n1CC(C)C` gave a melting point of 182 to 183 °C.
As to `Oc1ccc(Cl)c(Cl)c1OCC1CO1` (stereo unspecified), the melting point was in the range of 92 to 94 °C.
In the case of `CC1CCCN(CC(O)c2ccccc2)C1` (stereo unspecified) it was 70 °C.
Then `CCOC(=O)C1=C(C)Nc2nc[nH]c(=O)c2C1c1ccccc1` (stereo unspecified), with 303 to 305 °C.
Then `CCCCOC(=O)COc1ccc(C(=O)Nc2cc(F)ccc2Sc2ccccc2-c2nnn[nH]2)cc1`, with 177 to 179 °C; and `O=C(O)c1cccc([N+](=O)[O-])c1SCc1ccccc1`, with 152 to 153 °C.
In the case of `Cc1nccn1CC1CCC(Nc2ccccc2I)=CC1=O` (stereo unspecified), the melting point is 88 to 100 °C.
Then `COP(=S)(OC)Oc1nsc(-c2ccccc2)c1C#N`, with 40 °C; and `O=C1c2ccccc2C2(c3ccccc3)NCCCCN12` (stereo unspecified), with 180 to 181 °C; and `Cc1ccc(S(=O)(=O)OCC2Cc3c(Br)cccc3O2)cc1` (stereo unspecified), with 90 to 91 °C.
Then `Cc1cc(C(Cl)=NNc2ccccc2)ccc1[N+](=O)[O-]`, with 146 to 148 °C.
Then `C=Cc1ccc2nc(Cl)c(S(N)(=O)=O)n2n1`, with 229 to 233 °C.
Molecule `Cc1c(CO)ncc(Br)c1N1CCCCC1` displayed a melting point of 80 to 81 °C.
Then `O=C(Nc1cccc2c1C(=O)c1c-2n[nH]c1-c1ccc(N2CCC(N3CCCC3)CC2)cc1)NN1CCOCC1`, with 247 °C; and `CCOc1cc(Oc2ccc(C(F)(F)F)cn2)ccc1CCCO`, with 50 to 51 °C.
As for `O=c1nc(-c2cccc(CN3CCN(c4ccc(F)cc4)CC3)n2)sc2ccccc12`, the melting point fell in the range of 156 to 157 °C.
In the case of `CCC(=O)Oc1ccc2c(c1)CCC(CN1CCC(O)(c3ccccc3)CC1)C2=O` (stereo unspecified), the melting point was in the range of 170 to 172 °C.
In turn, `Clc1ccc(C(Br)C(Br)c2ncon2)cc1` (stereo unspecified) registered a melting point of 141 to 142 °C.
Then `COc1cc(Nc2c(C#N)cnc3c(-c4ccc(CN(C)C)cc4)csc23)c(Cl)cc1Cl`, with 201 to 202 °C; and `CP(C)(=O)C(O)C(N)=O` (stereo unspecified), with 155 °C.
Then `CN1CCC(N(CCO)S(=O)(=O)c2ccc(Nc3nccc(Nc4ccc(F)cc4)n3)cc2)CC1`, with 125 to 135 °C; and `CN1COc2cc(CCCN3CCOCC3)cnc21`, with below 80 °C; and `CC1(C)c2ccccc2C(C)(C)C1(S)CC#N`, with 113 to 114 °C.
On to `CCc1nc2c(N)nc3ccccc3c2n1CCCCNC(=O)C1CCCCC1`, for which the melting point came out at 202 °C.
Then `CC(=O)NC1(c2ccc(C(C)Cl)cc2)CC1` (stereo unspecified), with 104 to 107 °C; and `CNC(=O)c1cc2ccc3c(c2c(-c2ccc(OC(F)(F)F)cc2)c1CO)OCO3`, with 195 to 197 °C.
For the molecule `C[Si]1(C)CC[Si](C)(C)N1c1ccc(Br)cn1`, the melting point was in the range of 50.4 to 55.8 °C.
In the case of `C=CCc1c(O)ccc2c1CCC(=O)N2CC=C(C)C`, the melting point is 182 to 184 °C.
In the case of `CCOCc1nc2c(N)nc3cc(N4CCCCS4(=O)=O)ccc3c2n1CCCOC(C)C` it was 172 to 174 °C; in that of `CC(=O)SCCc1cccc(N)n1`, 55 to 59 °C.
Turning to `COc1cc(C(O)(C(F)(F)F)C(F)(F)F)cc(C)c1NS(C)(=O)=O`, the melting point lay within 109 to 110 °C.
In the case of `CCCN1CCc2c(ccc3[nH]c(=O)c(=O)[nH]c23)C1` it was 340 to 350 °C; in that of `Cn1nc(C(F)(F)F)nc1Oc1cc(On2c(=O)cc(C(F)(F)F)n(C)c2=O)c(F)cc1Cl`, 138 to 140 °C; in that of `O=c1c2ccccc2[nH]c(=S)n1CCCO`, 174 to 176 °C.
The molecule `COC(=O)CC1(C)CCc2cc(C#N)ccc2C1=O` (stereo unspecified) returned a melting point of 117 °C.
In the case of `COCCc1ncc(CO)c(NCc2ccc(-c3ccccc3-c3nnnn3C(c3ccccc3)(c3ccccc3)c3ccccc3)cc2)n1` it was 118 to 120 °C.
Then `S=C=Nc1cc(-c2nc(-c3ccco3)no2)ccc1Cl`, with 131 to 132 °C.
Then `CCc1cc(C(=O)Nc2cc(Oc3ccc4nc(NC(=O)C5CC5)cn4n3)ccc2F)n(C)n1`, with 236 °C; and `COc1ccc(-c2ccc(=O)n(Cc3ccc(Cl)cc3F)c2)cn1`, with 136 °C; and `NC(=O)CNC(=O)c1nccc(-c2cccc3cc(Cc4cccc(C(F)(F)F)c4)sc23)n1`, with 241 to 242 °C.
Turning to `CC1=C(CC(=O)N(C)O)c2cc(F)ccc2/C1=C\c1ccc(S(C)=O)cc1` (stereo unspecified), the melting point fell in the range of 156 to 160 °C.
In the case of `COc1ccc(C(=CC(=O)N2CCOCC2)c2ccc(Oc3nc(Cl)nc(Cl)n3)cc2)cc1OC` it was 90 to 100 °C; in that of `N#Cc1c(NC(=O)C2CCCCC2)sc(-c2ccccc2)c1[N+](=O)[O-]`, 213 to 214 °C; in that of `Cc1cnnc(-c2cccc(C(F)(F)F)c2)c1`, 114 to 116 °C.
Then `O=c1[nH]c2ccccc2nc1-c1ccc(Cl)cc1Cl`, with 300 °C; and `CCC1(C)OC(c2ccc(S(C)(=O)=O)cc2)=C(c2ccc(C(C)=O)cc2)C1=O` (stereo unspecified), with 147 to 148 °C; and `BrCc1ccc2ccccc2n1`, with 33 to 37 °C.
Then `Cn1c(C(F)(F)F)cc(=O)n(-c2ccc(Cl)c(C3OCCCO3)c2)c1=O`, with 87 to 92 °C; and `Nc1nc(F)cc(F)n1`, with 193 to 196 °C; and `CCOC(=O)CC1Cc2ccc(O)cc2Cc2ccccc21` (stereo unspecified), with 110 to 112 °C.
Molecule `COc1ccccc1-c1coc2c(O)c(O)ccc2c1=O` had a melting point of 220 to 222 °C.
As for `FC(F)(F)C1(c2ccccc2)CCNCC1`, the melting point stood at 87.6 °C.
In the case of `COc1cccc2cc(C)c(-c3ccccc3)nc12` it was 105 °C; in that of `CC(=O)ONC(=N)c1ccc(-c2ccc(-c3ccc(C(=N)NOC(C)=O)nc3)o2)cc1`, 266 to 268 °C; in that of `COC(=O)COc1ccc2cc(CNC(=O)c3cnn(-c4ccc(Cl)cc4)c3C(F)(F)F)ccc2c1`, 174 to 176 °C.
Then `Cc1cccc(C2(CC(=O)O)CNC(=O)C2)c1` (stereo unspecified), with 152 to 154 °C; and `CON=C(C)c1cc2c(Cl)cc(F)c(-n3c(=O)cc(C(F)(F)F)n(C)c3=O)c2o1`, with 176 to 178 °C; and `O=C1OC2(CCCCC2)OC(=O)C12CC2`, with 134 to 135 °C.
